# Where two headings read alike, the source gives them in different places.
# Legend:
# [1] = system: FIPV; experiment: Inhibitory activity against FIPV in cell culture (Table 1); type: cell-based; details: Alphacoronavirus 1, cell culture
# [2] = system: SARS-CoV-2; experiment: Cell-based assay for antiviral activity in A549-ACE2 cells; details: Severe acute respiratory syndrome coronavirus 2, mean ± standard deviation
# [3] = system: SARS-CoV-2; experiment: Cell-based assay for antiviral activity, plaque reduction in Vero E6 cells; details: mean ± standard deviation
# [4] = Nonspecific cytotoxic effects (CytoTox 96 assay); type: cell-based; details: African green monkey (Vero E6) and cat (CRFK); Vero E6 and CRFK cells, 72 hr
# Method: (§1) Nonspecific cytotoxic effects. […] Confluent cells grown in 96-well plates were incubated with various concentrations (1 to 100 μM) of each compound for 72 hr. Cell cytotoxicity was measured by a CytoTox 96 nonradioactive cytotoxicity assay kit (Promega, Madison, WI), and the CC50 values were calculated using a variable slope by GraphPad Prism software (Table 2).
# [5] = system: SARS-CoV-2; type: in vivo, K18-hACE2 mice; details: for lung edema average score: score 0-4
# [6] = biological target: SARS-CoV-2 3CLpro (Severe acute respiratory syndrome coronavirus 2 (2019-nCoV) (SARS-CoV-2), UniProt P0DTD1); experiment: biochemical; type: biochemical
# [7] = system: Vero E6 and CRFK cells; experiment: Nonspecific cytotoxic effects (CytoTox 96 assay); type: cell-based
# Method: as §1
# [8] = system: SARS-CoV-2; details: cited from earlier work
# [9] = biological target: SARS-CoV2 (enzyme) (Severe acute respiratory syndrome coronavirus 2 (2019-nCoV) (SARS-CoV-2), UniProt P0DTD1); experiment: Inhibitory activity against SARS-CoV2 enzyme (Table 1); type: biochemical
# [10] = Severe acute respiratory syndrome coronavirus 2, Vero C1008, read-out: EC50 (μM) VeroE6, VeroE6 cells
# [11] = read-out: EC50 (μM) VeroE6, VeroE6 cells
smiles,measurement,setting,value
[2H]c1c([2H])c([2H])c(C([2H])([2H])OC(=O)N[C@@H](CC(C)C)C(=O)N[C@@H](C[C@@H]2CCNC2=O)C(O)S(=O)(=O)[O-])c([2H])c1[2H].[Na+] (stereo in doubt) [Deuterated GC376-No1],EC50,[1],0.08 µM
"[2H]C([2H])(OC(=O)N[C@@H](CC(C)C)C(=O)N[C@H](C=O)C[C@@H]1CCNC1=O)c1ccccc1 [Compound 1, Phenylmethyl-d2 ((S)-4-methyl-1-oxo-1-(((S)-1-oxo-3-((S)-2-oxopyrrolidin-3-yl)propan-2-yl)amino)pentan-2-yl)carbamate]",EC50,[2],0.086 ± 0.01 µM
same,EC50,[3]; [10],0.068 to 0.086 µM
same,EC50,[3]; [11],0.068 ± 0.01 µM
same,CC50 at 72 h,[4],> 100000 nM
"[2H]C([2H])(OC(=O)N[C@@H](CC(C)C)C(=O)N[C@@H](C[C@@H]1CCNC1=O)C(O)S(=O)(=O)[O-])c1ccccc1.[Na+] (stereo partly drawn) [Compound 2, Sodium (2S)-1-hydroxy-2-((S)-4-methyl-2-(((phenylmethoxy-d2)carbonyl)amino)pentan-amido)-3-((S)-2-oxopyrrolidin-3-yl)propane-1-sulfonate]",EC50,[2],0.069 ± 0.01 µM
same,EC50,[3]; [10],0.068 to 0.086 µM
same,EC50,[3]; [11],0.086 ± 0.02 µM
same,pathological changes and infectious virus in the brains,"[5]; 2 and 5 dpi, detection limit 200 PFU/g",neither pathological changes nor infectious virus was detected
same,lung perivascular infiltrates,[5]; 2 dpi,Mild perivascular infiltrates
same,lung edema average score,[5]; 2 dpi,0
same,lung virus titers versus vehicle,"[5]; 2 dpi, second experiment",statistically significant reduction of virus titers
same,lung edema average score,[5]; 5 dpi,2
same,survival,"[5]; first experiment: 2×10^3 pfu per mouse, 100 mg/kg/day once a day from 1 dpi, 15 dpi",All compound 2-treated mice gradually gained body weight and were alive at the end of the study
same,body weight loss,"[5]; first experiment: 2×10^3 pfu per mouse, 100 mg/kg/day, 5-10 dpi, versus vehicle",loss was less severe compared to vehicle-treated mice
same,lung perivascular infiltrations average score,"[5]; mouse, in vivo",2
same,CC50 at 72 h,[4],> 100000 nM
"[2H]C([2H])(OC(=O)N[C@@H](CC(C)C)C(=O)N[C@@H](C[C@@H]1CCNC1=O)C(OC(C)=O)S(=O)(=O)[O-])c1ccccc1.[Na+] (stereo partly drawn) [Compound 3, Sodium (5S,8S)-5-isobutyl-3,6,11-trioxo-8-(((S)-2-oxopyrrolidin-3-yl)methyl)-1-phenyl-2,10-dioxa-4,7-diazadodecane-9-sulfonate-1,1-d2]",IC50,[6],710 ± 60 nM
same,potency (IC50) in the enzyme assay compared to aldehyde and bisulfite counterparts,[6],significantly increased IC50 values
same,CC50 at 72 h,[4],> 100000 nM
"[2H]C([2H])(OC(=O)N[C@@H](CC(C)C)C(=O)N[C@@H](C[C@@H]1CCNC1=O)C(OC(=O)CCCCC)S(=O)(=O)[O-])c1ccccc1.[Na+] (stereo partly drawn) [Compound 4, Sodium (5S,8S)-5-isobutyl-3,6,11-trioxo-8-(((S)-2-oxopyrrolidin-3-yl)methyl)-1-phenyl-2,10-dioxa-4,7-diazahexadecane-9-sulfonate-1,1-d2]",IC50,[6],800 ± 100 nM
same,potency (IC50) in the enzyme assay compared to aldehyde and bisulfite counterparts,[6],significantly increased IC50 values
same,CC50 at 72 h,[4],> 100000 nM
"[2H]C([2H])(OC(=O)N[C@@H](CC(C)C)C(=O)N[C@@H](C[C@@H]1CCNC1=O)C(=O)C(=O)NCc1ccccc1)c1ccccc1 [Compound 5, Phenylmethyl-d2 ((S)-1-(((S)-4-(benzylamino)-3,4-dioxo-1-((S)-2-oxopyrrolidin-3-yl)butan-2-yl)amino)-4-methyl-1-oxopentan-2-yl)carbamate]",IC50,[6],1310 ± 550 nM
same,potency (IC50) in the enzyme assay compared to aldehyde and bisulfite counterparts,[6],markedly decreased potency
same,CC50 at 72 h,[4],> 100000 nM
"[2H]c1c([2H])c([2H])c(COC(=O)N[C@@H](CC(C)C)C(=O)N[C@H](C=O)C[C@@H]2CCNC2=O)c([2H])c1[2H] [Compound 6, (Phenyl-d5)methyl ((S)-4-methyl-1-oxo-1-(((S)-1-oxo-3-((S)-2-oxopyrrolidin-3-yl)propan-2-yl)amino)pentan-2-yl)carbamate]",EC50,[2],0.075 ± 0.01 µM
same,EC50,[3]; [10],0.068 to 0.086 µM
same,EC50,[3]; [11],0.077 ± 0.01 µM
same,CC50 at 72 h,[4],> 100000 nM
"[2H]c1c([2H])c([2H])c(COC(=O)N[C@@H](CC(C)C)C(=O)N[C@@H](C[C@@H]2CCNC2=O)C(O)S(=O)(=O)[O-])c([2H])c1[2H].[Na+] (stereo partly drawn) [Compound 7, Sodium (2S)-1-hydroxy-2-((S)-4-methyl-2-((((phenyl-d5)methoxy)carbonyl)amino)pentanamido)-3-((S)-2-oxopyrrolidin-3-yl)propane-1-sulfonate]",EC50,[2],0.1 ± 0.01 µM
same,EC50,[3]; [10],0.068 to 0.086 µM
same,EC50,[3]; [11],0.079 ± 0.01 µM
same,CC50 at 72 h,[4],> 100000 nM
"[2H]c1c([2H])c([2H])c(COC(=O)N[C@@H](CC(C)C)C(=O)N[C@@H](C[C@@H]2CCNC2=O)C(OC(=O)CCCCC)S(=O)(=O)[O-])c([2H])c1[2H].[Na+] (stereo partly drawn) [Compound 8, Sodium (5S,8S)-5-isobutyl-3,6,11-trioxo-8-(((S)-2-oxopyrrolidin-3-yl)methyl)-1-(phenyl-d5)-2,10-dioxa-4,7-diazahexadecane-9-sulfonate]",IC50,[6],680 ± 350 nM
same,potency (IC50) in the enzyme assay compared to aldehyde and bisulfite counterparts,[6],significantly increased IC50 values
same,CC50 at 72 h,[4],> 100000 nM
"[2H]c1c([2H])c([2H])c(C([2H])([2H])OC(=O)N[C@@H](CC(C)C)C(=O)N[C@H](C=O)C[C@@H]2CCNC2=O)c([2H])c1[2H] [Compound 9, (Phenyl-d5)methyl-d2 ((S)-4-methyl-1-oxo-1-(((S)-1-oxo-3-((S)-2-oxopyrrolidin-3-yl)propan-2-yl)amino)pentan-2-yl)carbamate]",CC50 at 72 h,[4],> 100000 nM
"CC(C)C[C@H](NC(=O)OCc1ccccc1)C(=O)N[C@@H](C[C@@H]1CCNC1=O)C(O)S(=O)(=O)O (stereo partly drawn) [Compound 10, Sodium(2S)-1-hydroxy-2-((S)-4-methyl-2-((((phenyl-d5)methoxy-d2)carbonyl)amino)pentanamido)-3-((S)-2-oxopyrrolidin-3-yl)propane-1-sulfonate]",CC50,"[7]; Vero E6 and CRFK cells, 72 hr",> 100000 nM
"[2H]c1c([2H])c([2H])c(C([2H])([2H])OC(=O)N[C@@H](CC(C)C)C(=O)N[C@@H](C[C@@H]2CCNC2=O)C(OC(=O)CCCCC)S(=O)(=O)[O-])c([2H])c1[2H].[Na+] (stereo partly drawn) [Compound 11, Sodium (5S,8S)-5-isobutyl-3,6,11-trioxo-8-(((S)-2-oxopyrrolidin-3-yl)methyl)-1-(phenyl-d5)-2,10-dioxa-4,7-diazahexadecane-9-sulfonate-1,1-d2]",IC50,[6],770 ± 120 nM
same,potency (IC50) in the enzyme assay compared to aldehyde and bisulfite counterparts,[6],significantly increased IC50 values
same,CC50 at 72 h,[4],> 100000 nM
[2H]c1c([2H])c([2H])c(C([2H])([2H])OC(=O)N[C@@H](CC(C)C)C(=O)N[C@H](C=O)C[C@@H]2CCNC2=O)c([2H])c1[2H] [Deuterated GC373-No1],EC50,[1],0.05 µM
[2H]C([2H])(OC(=O)N[C@@H](CC(C)C)C(=O)N[C@H](C=O)C[C@@H]1CCNC1=O)c1ccccc1 [Deuterated GC373-No2],EC50,[1],0.05 µM
"CC(C)C[C@H](NC(=O)OCc1ccccc1)C(=O)N[C@@H](C[C@@H]1CCNC1=O)C(O)S(=O)(=O)[O-].[Na+] (stereo partly drawn) [GC376, reference compound]",EC50,[1],0.05 µM
same,EC50,[3]; [10],0.23 ± 0.01 µM
same,cytotoxicity,[7]; up to 100 μM,did not show any cytotoxicity
same,survival,"[8]; given three hours after virus inoculation that led to 100% fatality, versus vehicle",no difference in survival
same,viral load and inflammation in the lungs,"[8]; given three hours after virus inoculation, versus vehicle-treated controls",reduced viral load and inflammation
"CC(C)C[C@H](NC(=O)OCc1ccccc1)C(=O)N[C@H](C=O)C[C@@H]1CCNC1=O [Parental aldehyde, reference compound]",EC50,[1],0.05 µM
[2H]C([2H])(OC(=O)N[C@@H](CC(C)C)C(=O)N[C@@H](C[C@@H]1CCNC1=O)C(OC(C)=O)S(=O)(=O)[O-])c1ccccc1.[Na+] (stereo partly drawn) [Prodrug of GC1129-No1],EC50,[9],0.7 µM
same,EC50,[1],0.06 µM
[2H]C([2H])(OC(=O)N[C@@H](CC(C)C)C(=O)N[C@@H](C[C@@H]1CCNC1=O)C(OC(=O)CCCCC)S(=O)(=O)[O-])c1ccccc1.[Na+] (stereo partly drawn) [Prodrug of GC1129-No2],EC50,[9],0.8 µM
same,EC50,[1],0.06 µM

# Reference: patent US12180156B2 (priority 2020, dated 2024)
